Like-named read-outs stand apart in the source and are kept apart here.
What was measured:
[1] = Biodistribution in HEK293-hsst5+ tumor-bearing mice; type: in vivo; details: mouse, iv, total radioactivity, HEK293-hsst5+ tumor SCID mice, 4 h pi, mean ± SD
Procedure: (§1) In the flanks of SCID mice, inocula (150 μL) containing a suspension of 1.8 × 10^7 HEK293-hsst2A^+, -hsst3^+ or -hsst5^+ cells in PBS were subcutaneously injected. Tumors of substantial size were grown within 3 weeks, whereupon biodistribution experiments were performed.
(§2) The in vivo data presented as mean %ID/g ± SD (n ≥ 4) were statistically analyzed with Student’s t test (Prism^TM 2.01, GraphPad Software, San Diego, CA, USA). Analyses were 2-tailed, and a P value < 0.05 was considered statistically significant.

[2] = Biodistribution in AR4-2J tumor-bearing mice; type: in vivo; details: female, mouse, iv, total radioactivity, AR4-2J tumor SCID mice, mean ± SD; for tissue uptake at 1 h: 1 h pi
Procedure: In the flanks of each of female SCID mice, inocula (150 μL) containing a suspension of 0.8 × 10^7 AR4-2J cells in PBS buffer were subcutaneously injected. […] Mice were sacrificed at 4 h pi, and biodistribution was studied as described above.
as §2

[3] = Metabolism in blood (in vivo stability); design: species or system mouse; details: healthy male Swiss albino mice, blood collected 5 min after iv injection (3 nmol), RP-HPLC radioanalysis
Procedure: The animals were kept for 5 min in cages with free access to water. They were sacrificed by cardiac puncture under ether anesthesia, and blood was withdrawn with a syringe and immediately placed in a pre-chilled EDTA-containing polypropylene vial on ice. Blood samples were centrifuged at 2,000 × g at 4 °C for 10 min.

[4] = Biodistribution in HEK293-hsst3+ tumor-bearing mice; type: in vivo; details: mouse, iv, total radioactivity, HEK293-hsst3+ tumor SCID mice, 4 h pi, mean ± SD
Procedure: as §1, §2

[5] = Biodistribution in AR4-2J tumor-bearing mice; type: in vivo; details: female, mouse, iv, total radioactivity, AR4-2J tumor SCID mice, 1 h pi, mean ± SD
[6] = Biodistribution in healthy mice; type: in vivo; details: male, mouse, total radioactivity, healthy Swiss albino mice
Procedure: In the in vivo receptor blockade animal group, excess Tate (50 nmol) was administered intravenously (iv) together with the radioligand. Animals were sacrificed in groups of four at 4- and 24-h time points post injection (pi). […] Tissue distribution data were calculated as percent injected dose per gram (%ID/g) applying a suitable algorithm.
as §2

[7] = Biodistribution in HEK293-hsst2A+ tumor-bearing mice; type: in vivo; details: mouse, iv, total radioactivity, HEK293-hsst2A+ tumor SCID mice, mean ± SD
Procedure: as §1, §2

[8] = blood, 10 pmol, read-out: Blood uptake
[9] = heart, 10 pmol, read-out: Heart uptake
[10] = intestines, 10 pmol total peptide, read-out: Intestines uptake
[11] = 10 pmol, read-out: Tumor uptake
[12] = kidneys, 10 pmol, read-out: Kidneys uptake
[13] = liver, 10 pmol, read-out: Liver uptake
[14] = muscle, 10 pmol total peptide, read-out: Muscle uptake
[15] = pancreas, 10 pmol, read-out: Pancreas uptake
[16] = spleen, 10 pmol total peptide, read-out: Spleen uptake
[17] = stomach, 10 pmol, read-out: Stomach uptake
[18] = blood, 10 pmol, 4 h pi, read-out: Blood uptake
[19] = femur, 10 pmol, 4 h pi, read-out: Femur uptake
[20] = heart, 10 pmol, 4 h pi, read-out: Heart uptake
[21] = intestines, 10 pmol total peptide, 4 h pi, read-out: Intestines uptake
[22] = 10 pmol, 4 h pi, read-out: Tumor uptake
[23] = kidneys, 10 pmol, 4 h pi, read-out: Kidneys uptake
[24] = liver, 10 pmol, 4 h pi, read-out: Liver uptake
[25] = lung, 10 pmol total peptide, read-out: Lung uptake
[26] = lung, 10 pmol total peptide, 4 h pi, read-out: Lung uptake
[27] = muscle, 10 pmol total peptide, 4 h pi, read-out: Muscle uptake
[28] = pancreas, 10 pmol, 4 h pi, read-out: Pancreas uptake
[29] = spleen, 10 pmol total peptide, 4 h pi, read-out: Spleen uptake
[30] = stomach, 10 pmol, 4 h pi, read-out: Stomach uptake
[31] = femur, 10 pmol, read-out: Femur uptake

C[C@H](NC(=O)CN1CCN(CC(=O)O)CCN(CC(=O)O)CCN(CC(=O)O)CC1)C(=O)NCC(=O)N[C@H]1CSSC[C@@H](C(=O)O)NC(=O)[C@H](CO)NC(=O)[C@H]([C@@H](C)O)NC(=O)[C@H](Cc2ccccc2)NC(=O)[C@H]([C@@H](C)O)NC(=O)[C@H](CCCCN)NC(=O)[C@@H](Cc2c[nH]c3ccccc23)NC(=O)[C@H](Cc2ccccc2)NC(=O)[C@H](Cc2ccccc2)NC(=O)[C@H](CC(N)=O)NC(=O)[C@H](CCCCN)NC1=O [[^111In]AT2S, metal not drawn]
tissue uptake at 4 h [1, 8]: 0.1 ± 0.04 %ID/g
tissue uptake at 4 h [1, 9]: 0.15 ± 0.02 %ID/g
tissue uptake at 4 h [1, 10]: 1.54 ± 0.09 %ID/g
tissue uptake at 4 h [1, 11]: 0.41 ± 0.12 %ID/g
tissue uptake at 4 h [1, 12]: 24.1 ± 1.21 %ID/g
tissue uptake at 4 h [1, 13]: 1.1 ± 0.08 %ID/g
tissue uptake at 4 h ([1]; lung, 10 pmol, read-out: Lung uptake): 0.56 ± 0.28 %ID/g
tissue uptake at 4 h [1, 14]: 0.06 ± 0.01 %ID/g
tissue uptake at 4 h [1, 15]: 2.79 ± 0.4 %ID/g
tissue uptake at 4 h [1, 16]: 0.78 ± 0.07 %ID/g
tissue uptake at 4 h [1, 17]: 3.06 ± 0.73 %ID/g
tissue uptake at 4 h [2, 18]: 0.19 ± 0.02 %ID/g
tissue uptake at 4 h ([2]; blood, 4 h pi + co-injection of 50 nmol Tate, read-out: Blood uptake, blocked): 0.26 ± 0.03 %ID/g
tissue uptake at 4 h [2, 19]: 0.4 ± 0.24 %ID/g
tissue uptake at 4 h ([2]; femur, 4 h pi + co-injection of 50 nmol Tate, read-out: Femur uptake, blocked): 0.19 ± 0.02 %ID/g
tissue uptake at 1 h [2, 9]: 0.67 ± 0.12 %ID/g
tissue uptake at 4 h [2, 20]: 0.18 ± 0.05 %ID/g
tissue uptake at 4 h ([2]; heart, 4 h pi + co-injection of 50 nmol Tate, read-out: Heart uptake, blocked): 0.17 ± 0.04 %ID/g
tissue uptake at 1 h [2, 10]: 1.98 ± 0.29 %ID/g
tissue uptake at 4 h [2, 21]: 1.92 ± 0.25 %ID/g
tissue uptake at 4 h ([2]; intestines, 4 h pi + co-injection of 50 nmol Tate, read-out: Intestines uptake, blocked): 0.77 ± 0.58 %ID/g
tissue uptake at 4 h [2, 22]: 1.82 ± 0.36 %ID/g
tissue uptake at 4 h ([2]; 4 h pi + co-injection of 50 nmol Tate, read-out: Tumor uptake, blocked): 0.21 ± 0.17 %ID/g
tissue uptake at 1 h [2, 12]: 23.8 ± 4.28 %ID/g
tissue uptake at 4 h [2, 23]: 21.1 ± 4.43 %ID/g
tissue uptake at 4 h ([2]; kidneys, 4 h pi + co-injection of 50 nmol Tate, read-out: Kidneys uptake, blocked): 24.4 ± 9.15 %ID/g
tissue uptake at 1 h [2, 13]: 1.27 ± 0.09 %ID/g
tissue uptake at 4 h [2, 24]: 0.95 ± 0.21 %ID/g
tissue uptake at 4 h ([2]; liver, 4 h pi + co-injection of 50 nmol Tate, read-out: Liver uptake, blocked): 1.02 ± 0.11 %ID/g
tissue uptake at 1 h [2, 25]: 2.05 ± 0.52 %ID/g
tissue uptake at 4 h [2, 26]: 1.43 ± 1.36 %ID/g
tissue uptake at 4 h ([2]; lung, 4 h pi + co-injection of 50 nmol Tate, read-out: Lung uptake, blocked): 3.3 ± 4.93 %ID/g
tissue uptake at 1 h [2, 14]: 0.22 ± 0.02 %ID/g
tissue uptake at 4 h [2, 27]: 0.06 ± 0.01 %ID/g
tissue uptake at 4 h ([2]; muscle, 4 h pi + co-injection of 50 nmol Tate, read-out: Muscle uptake, blocked): 0.07 ± 0.01 %ID/g
tissue uptake at 1 h [2, 15]: 7.35 ± 0.74 %ID/g
tissue uptake at 4 h [2, 28]: 5.13 ± 0.75 %ID/g
tissue uptake at 4 h ([2]; pancreas, 4 h pi + co-injection of 50 nmol Tate, read-out: Pancreas uptake, blocked): 0.15 ± 0.05 %ID/g
tissue uptake at 4 h [2, 29]: 1.1 ± 0.63 %ID/g
tissue uptake at 4 h ([2]; spleen, 4 h pi + co-injection of 50 nmol Tate, read-out: Spleen uptake, blocked): 0.61 ± 0.18 %ID/g
tissue uptake at 1 h [2, 17]: 3.23 ± 0.77 %ID/g
tissue uptake at 4 h [2, 30]: 1.81 ± 0.47 %ID/g
tissue uptake at 4 h ([2]; stomach, 4 h pi + co-injection of 50 nmol Tate, read-out: Stomach uptake, blocked): 0.18 ± 0.07 %ID/g
intact radiopeptide detected in blood [3]: 6.5%
tissue uptake at 4 h [4, 8]: 0.19 ± 0.03 %ID/g
tissue uptake at 4 h [4, 31]: 0.23 ± 0.03 %ID/g
tissue uptake at 4 h [4, 9]: 0.15 ± 0.04 %ID/g
tissue uptake at 4 h [4, 10]: 2.39 ± 0.43 %ID/g
tissue uptake at 4 h [4, 11]: 1.24 ± 0.27 %ID/g
tissue uptake at 4 h [4, 12]: 23.4 ± 4.69 %ID/g
tissue uptake at 4 h [4, 13]: 1.02 ± 0.19 %ID/g
tissue uptake at 4 h [4, 25]: 0.68 ± 0.29 %ID/g
tissue uptake at 4 h [4, 14]: 0.06 ± 0.01 %ID/g
tissue uptake at 4 h [4, 15]: 3.33 ± 0.4 %ID/g
tissue uptake at 4 h [4, 16]: 0.82 ± 0.11 %ID/g
tissue uptake at 4 h [4, 17]: 3.41 ± 0.97 %ID/g
tissue uptake at 1 h [5, 8]: 1.34 ± 0.21 %ID/g
tissue uptake at 1 h [5, 31]: 0.49 ± 0.12 %ID/g
tissue uptake at 1 h [5, 11]: 3.05 ± 0.51 %ID/g
tissue uptake at 1 h [5, 16]: 0.84 ± 0.21 %ID/g
tissue uptake at 4 h ([6]; kidney, 10 pmol total peptide, 4 h pi, iv 10 pmol, read-out: Kidney uptake): 22.9 %ID/g
tissue uptake at 24 h ([6]; kidney, 10 pmol total peptide, 24 h pi, iv 10 pmol): 7.6 %ID/g
tissue uptake at 4 h ([6]; pancreas, 10 pmol total peptide, 4 h pi, iv 10 pmol, read-out: Pancreas uptake): 2.9 %ID/g
tissue uptake at 4 h ([6]; pancreas, iv, 4 h pi + excess Tate (50 nmol), read-out: Pancreas uptake, sst2 blockade): 0.17 %ID/g
tissue uptake at 4 h [7, 18]: 0.23 ± 0.07 %ID/g
tissue uptake at 4 h ([7]; blood, 4 h pi + co-injection of 35 nmol DP2, read-out: Blood uptake, blocked): 0.66 ± 0.35 %ID/g
tissue uptake at 4 h [7, 19]: 0.24 ± 0.09 %ID/g
tissue uptake at 4 h ([7]; femur, 4 h pi + co-injection of 35 nmol DP2, read-out: Femur uptake, blocked): 0.21 ± 0.11 %ID/g
tissue uptake at 4 h [7, 20]: 0.22 ± 0.05 %ID/g
tissue uptake at 4 h ([7]; heart, 4 h pi + co-injection of 35 nmol DP2, read-out: Heart uptake, blocked): 0.38 ± 0.1 %ID/g
tissue uptake at 4 h [7, 21]: 2 ± 0.48 %ID/g
tissue uptake at 4 h ([7]; intestines, 4 h pi + co-injection of 35 nmol DP2, read-out: Intestines uptake, blocked): 1.74 ± 1.02 %ID/g
tissue uptake at 4 h [7, 22]: 1.49 ± 0.2 %ID/g
tissue uptake at 4 h ([7]; 4 h pi + co-injection of 35 nmol DP2, read-out: Tumor uptake, blocked): 0.27 ± 0.2 %ID/g
tissue uptake at 4 h [7, 23]: 23.2 ± 7.04 %ID/g
tissue uptake at 4 h ([7]; kidneys, 4 h pi + co-injection of 35 nmol DP2, read-out: Kidneys uptake, blocked): 25.5 ± 3.7 %ID/g
tissue uptake at 4 h [7, 24]: 1.31 ± 0.36 %ID/g
tissue uptake at 4 h ([7]; liver, 4 h pi + co-injection of 35 nmol DP2, read-out: Liver uptake, blocked): 0.963 ± 0.67 %ID/g
tissue uptake at 4 h [7, 26]: 1.37 ± 0.55 %ID/g
tissue uptake at 4 h ([7]; lung, 4 h pi + co-injection of 35 nmol DP2, read-out: Lung uptake, blocked): 0.47 ± 0.08 %ID/g
tissue uptake at 4 h [7, 27]: 0.07 ± 0.02 %ID/g
tissue uptake at 4 h ([7]; muscle, 4 h pi + co-injection of 35 nmol DP2, read-out: Muscle uptake, blocked): 0.07 ± 0.03 %ID/g
tissue uptake at 4 h [7, 28]: 5.73 ± 1.28 %ID/g
tissue uptake at 4 h ([7]; pancreas, 4 h pi + co-injection of 35 nmol DP2, read-out: Pancreas uptake, blocked): 0.16 ± 0.1 %ID/g
tissue uptake at 4 h [7, 29]: 0.46 ± 0.11 %ID/g
tissue uptake at 4 h ([7]; spleen, 4 h pi + co-injection of 35 nmol DP2, read-out: Spleen uptake, blocked): 0.5 ± 0.36 %ID/g
tissue uptake at 4 h [7, 30]: 1.96 ± 0.53 %ID/g
tissue uptake at 4 h ([7]; stomach, 4 h pi + co-injection of 35 nmol DP2, read-out: Stomach uptake, blocked): 1.29 ± 0.36 %ID/g

— paper PMC3407795 (EJNMMI Research, 2012)
